One data set deals with T1, hGLP-1 receptor (Homo sapiens, UniProt P43220).
T1 construct: expressed in transfected cells; host or cells: CHO-K1 (stably transfected with hGLP-1 receptor plasmid and CRE-luc plasmid)
As to the kind of experiment: Agonist activity against GLP-1 receptor (CRE-luciferase reporter, ONE-Glo Luciferase Assay System). In kind it is cell-based. The note with it: CHO-K1/CRE-luc/hGLP-1 receptor cells; 5 h incubation with compound; chemiluminescence readout. An excerpt:
This experiment was intended to test the agonist activity of compound molecules against hGLP-1 receptor and evaluate the in vitro activity of the molecules according to EC50. In this experiment, ONE-Glo™ Luciferase Assay System (ONE-Glo™ Luciferase Assay System, Promega, E6110) was used. Under the action of the compound molecules, GLP-1R downstream signaling pathways were activated to cause elevated cAMP level. The binding of cAMP to CRE could initiate the transcriptional expression of a CRE downstream luciferase gene. The luciferase could emit fluorescence when reacting with a substrate thereof. The fluorescence signal, which reflected the activity of the compound for agonizing GLP-1 receptor, was measured by means ONE-Glo™ reagent.
A stably transfected CHO-K1/CRE-luc/hGLP-1 receptor cell strain (hGLP-1 receptor plasmid constructed in-house and CRE-luc plasmid Promega E8471) was constructed. CHO-K1/CRE-luc/hGLP-1 receptor cells were digested, centrifuged, and then resuspended. The single cell suspension was uniformly mixed and adjusted to a viable cell density of 2.78 × 10^5 cells/ml with a cell culture medium (DME/F-12 + 10% FBS). The resulting solution was added to a 96-well cell culture plate at 90 µL/well (Corning, #3903). The culture plate was incubated in an incubator for 16 h (37°C, 5% CO2).
The compound was dissolved in DMSO to prepare a stock solution with an initial concentration of 20 mM. The starting concentration of the small molecule compound was 0.02 mM. The compound was subjected to 3-fold dilution for 10 points, wherein the 11th point was DMSO. Another 96-well plate was taken, to which was added 95 µL/well of a cell culture medium (DME/F-12 + 10% FBS), followed by 5 µL/well of test samples with different concentrations. The mixtures were uniformly mixed. Next, 10 µL/well of test samples with different concentrations were added to the cell culture plate, with two duplicate wells for each sample. The culture plate was incubated in an incubator for 5 h (37°C, 5% CO2). The 96-well cell culture plate was taken out. 100 µL/well of ONE-Glo™ reagent was added, followed by incubation at room temperature for 10 minutes. Chemiluminescence was measured in and by a microplate reader (PHERAstar FS, BMG labtech).
Data were processed and analyzed using Microsoft Excel and Graphpad Prism 10. EC50 values of the compounds were obtained. Table 1. Agonist activity of the compounds of the present invention against hGLP-1 receptor

Data set [1] in a line: Pharmacokinetic evaluation in monkeys after intragastric gavage (plasma LC-MS/MS). It counts as in vivo. The note with it: both sexes, cynomolgus monkey, po, i.g., 1 mg/kg. Here is the method: Using cynomolgus monkeys as test animals, the plasma concentrations of the example compounds at different time points were determined by an LC-MS/MS method following administration to the monkeys by intragastric gavage (i.g.). The pharmacokinetic behaviors of the compounds of the present invention in monkeys were investigated, and the pharmacokinetic profiles thereof were evaluated.
Compound 9: Three cynomolgus monkeys (two males and one female) were provided by Guangxi Nanning Tongling Shengwu Keji Youxian Gongsi, with production license SCXK Gui-2020-0002.
Compound 9: A certain amount of the test compound was separately weighed. 5% DMSO + 30% PG + 30% PEG400 + 35% normal saline were added to prepare a 0.4 mg/mL colorless and clear solution.
Compound 9: Administration dose was 1 mg/kg and administration volume was 2.5 mL/kg.
0.5 mL of blood samples were collected from the vein before administration and at 0.25, 0.5, 1.0, 2.0, 4.0, 6.0, 8.0, 11.0, and 24.0 hours after administration and placed in EDTA-K2 anticoagulant tubes, followed by centrifugation at 10000 rpm for 2 minutes (4°C). The plasma was separated within 1 hour and stored at -20°C or -80°C for analysis. The process from blood collection to centrifugation was operated under ice bath condition.
Determination of test compound contents in […] after administration of different compounds: Compound 9: 50 µL of the monkey plasma sample collected at each time point after administration was taken. 25 µL of an internal standard acetonitrile solution (tolbutamide, 1 ug/mL) was added, followed by 450 µL of an acetonitrile solution. The mixture was vortexed and mixed, followed by centrifugation at 3700 rpm for 10 min. The supernatant was taken for LC-MS/MS analysis.

In general, EC50 refers to the concentration giving half of the maximal effect. Broadly, the bioavailability is dose-corrected exposure relative to a reference, in per cent.

T1 sequence (P43220 24-463): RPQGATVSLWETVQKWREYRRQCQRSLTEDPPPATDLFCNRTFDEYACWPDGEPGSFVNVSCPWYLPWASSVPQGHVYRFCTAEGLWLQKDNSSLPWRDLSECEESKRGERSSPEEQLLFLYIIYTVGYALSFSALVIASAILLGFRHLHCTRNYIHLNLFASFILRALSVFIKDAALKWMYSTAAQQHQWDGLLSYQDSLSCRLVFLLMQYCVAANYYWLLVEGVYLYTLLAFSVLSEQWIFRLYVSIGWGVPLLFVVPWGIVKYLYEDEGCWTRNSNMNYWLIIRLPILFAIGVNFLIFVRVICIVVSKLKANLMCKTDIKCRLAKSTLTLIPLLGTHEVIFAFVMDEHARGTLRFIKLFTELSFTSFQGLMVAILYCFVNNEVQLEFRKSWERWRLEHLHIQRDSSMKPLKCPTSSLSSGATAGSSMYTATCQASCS

On to `Cc1cc(-n2nc3c(c2N2C[C@@H]4COc5cc6c(cnn6CC(F)(F)F)c(F)c5N4C2=O)[C@H](C)N(C(=O)c2cc4cc([C@H]5CCOC(C)(C)C5)ccc4n2[C@@]2(c4noc(=O)[nH]4)C[C@@H]2C)CC3)cc(C)c1F` [Compound 29, (R)-2-((S)-5-(5-((S)-2,2-dimethyltetrahydro-2H-pyran-4-yl)-1-((1S,2S)-2-methyl-1-(5-oxo-4,5-dihydro-1,2,4-oxadiazol-3-yl)cyclopropyl)-1H-indole-2-carbonyl)-2-(4-fluoro-3,5-dimethylphenyl)-4-methyl-4,5,6,7-tetrahydro-2H-pyrazolo[4,3-c]pyridin-3-yl)-10-fluoro-7-(2,2,2-trifluoroethyl)-2,3,3a,4-tetrahydro-1H,7H-imidazo[1',5':4,5][1,4]oxazino[3,2-f]indazol-1-one], for which, at hGLP-1 receptor, the EC50 is 0.02 nM and the Emax was 19.58 fold.
On the same counts, the results for `Cc1cc(-n2nc3c(c2-c2cccn(-c4ccc5c(cnn5C)c4)c2=O)[C@H](C)N(C(=O)c2cc4cc([C@H]5CCOC(C)(C)C5)ccc4n2[C@@]2(c4noc(=O)[nH]4)C[C@@H]2C)CC3)cc(C)c1F` [Compound 3, 3-((1S,2S)-1-(5-((S)-2,2-dimethyltetrahydro-2H-pyran-4-yl)-2-((S)-2-(4-fluoro-3,5-dimethylphenyl)-4-methyl-3-(1-(1-methyl-1H-indazol-5-yl)-2-oxo-1,2-dihydropyridin-3-yl)-4,5,6,7-tetrahydro-2H-pyrazolo[4,3-c]pyridine-5-carbonyl)-1H-indol-1-yl)-2-methylcyclopropyl)-1,2,4-oxadiazol-5(4H)-one] are 0.09 nM and 19.88 fold.
For `C[C@H]1c2c(nn(-c3ccc(F)c(C4CC4)c3)c2-c2cncn(-c3ccc4c(cnn4C)c3)c2=O)CCN1C(=O)c1cc2cc([C@H]3CCOC(C)(C)C3)ccc2n1[C@@]1(c2noc(=O)[nH]2)C[C@@H]1C` [Compound 42, 3-((1S,2S)-1-(2-((S)-2-(3-cyclopropyl-4-fluorophenyl)-4-methyl-3-(1-(1-methyl-1H-indazol-5-yl)-6-oxo-1,6-dihydropyrimidin-5-yl)-4,5,6,7-tetrahydro-2H-pyrazolo[4,3-c]pyridine-5-carbonyl)-5-((S)-2,2-dimethyltetrahydro-2H-pyran-4-yl)-1H-indol-1-yl)-2-methylcyclopropyl)-1,2,4-oxadiazol-5(4H)-one] the same measures were 0.05 nM and 19.67 fold.
For `Cc1cc(-n2nc3c(c2N2C[C@@H]4COc5c(ccc6c5cnn6C5CC5)N4C2=O)[C@H](C)N(C(=O)c2cc4cc([C@H]5CCOC(C)(C)C5)ccc4n2[C@@]2(c4noc(=O)[nH]4)C[C@@H]2C)CC3)cc(C)c1F` [Compound 24, (R)-1-cyclopropyl-7-((S)-5-(5-((S)-2,2-dimethyltetrahydro-2H-pyran-4-yl)-1-((1S,2S)-2-methyl-1-(5-oxo-4,5-dihydro-1,2,4-oxadiazol-3-yl)cyclopropyl)-1H-indole-2-carbonyl)-2-(4-fluoro-3,5-dimethylphenyl)-4-methyl-4,5,6,7-tetrahydro-2H-pyrazolo[4,3-c]pyridin-3-yl)-5,5a,6,7-tetrahydro-1H,8H-imidazo[1',5':4,5][1,4]oxazino[2,3-e]indazol-8-one] the same measures were 0.03 nM and 18.51 fold.
Regarding `Cc1cc(-n2nc3c(c2-c2cncn(-c4ccc5c(cnn5C5CC5)c4)c2=O)[C@H](C)N(C(=O)c2cc4cc([C@H]5CCOC(C)(C)C5)ccc4n2[C@@]2(c4noc(=O)[nH]4)C[C@@H]2C)CC3)cc(C)c1F` [Compound 41, 3-((1S,2S)-1-(2-((S)-3-(1-(1-cyclopropyl-1H-indazol-5-yl)-6-oxo-1,6-dihydropyrimidin-5-yl)-2-(4-fluoro-3,5-dimethylphenyl)-4-methyl-4,5,6,7-tetrahydro-2H-pyrazolo[4,3-c]pyridine-5-carbonyl)-5-((S)-2,2-dimethyltetrahydro-2H-pyran-4-yl)-1H-indol-1-yl)-2-methylcyclopropyl)-1,2,4-oxadiazol-5(4H)-one], at hGLP-1 receptor, the EC50 was found to be 0.05 nM and the Emax was 18.56 fold.
On the same counts, the results for `Cc1cc(-n2nc3c(c2N2C[C@@H]4COc5c(ccc6c5cnn6C)N4C2=O)[C@H](C)N(C(=O)c2cc4cc([C@H]5CCOC(C)(C)C5)ccc4n2[C@@]2(c4noc(=O)[nH]4)C[C@@H]2C)CC3)cc(C)c1F` [Compound 23, (R)-7-((S)-5-(5-((S)-2,2-dimethyltetrahydro-2H-pyran-4-yl)-1-((1S,2S)-2-methyl-1-(5-oxo-4,5-dihydro-1,2,4-oxadiazol-3-yl)cyclopropyl)-1H-indole-2-carbonyl)-2-(4-fluoro-3,5-dimethylphenyl)-4-methyl-4,5,6,7-tetrahydro-2H-pyrazolo[4,3-c]pyridin-3-yl)-1-methyl-5,5a,6,7-tetrahydro-1H,8H-imidazo[1',5':4,5][1,4]oxazino[2,3-e]indazol-8-one] are 0.02 nM and 22.76 fold.
`Cc1cc(-n2nc3c(c2-c2cncn(-c4ccc5c(cnn5C)c4)c2=O)[C@H](C)N(C(=O)c2cc4cc([C@H]5CCOC(C)(C)C5)ccc4n2[C@@]2(c4noc(=O)[nH]4)C[C@@H]2C)CC3)cc(C)c1F` [Compound 9, 3-((1S,2S)-1-(5-((S)-2,2-dimethyltetrahydro-2H-pyran-4-yl)-2-((S)-2-(4-fluoro-3,5-dimethylphenyl)-4-methyl-3-(1-(1-methyl-1H-indazol-5-yl)-6-oxo-1,6-dihydropyrimidin-5-yl)-4,5,6,7-tetrahydro-2H-pyrazolo[4,3-c]pyridine-5-carbonyl)-1H-indol-1-yl)-2-methylcyclopropyl)-1,2,4-oxadiazol-5(4H)-one]: at hGLP-1 receptor, the concentration for a half-maximal effect (EC50) was determined as 0.06 nM and the Emax is reported as 18.96 fold. For the same compound, in data set [1] (read-out: Apparent volume of distribution Vz/F), the Vd/F is 6.12 L/kg. For the same compound, the AUC(0-t) in data set [1] (read-out: Area under the curve AUC0-t) was found to be 1180 ng·h/mL. Moreover, the bioavailability in data set [1] (read-out: Bioavailability F) was 44.5%. For the same compound, the CL/F in data set [1] (read-out: Clearance CL/F) turned out to be 12.4 mL/min/kg. In data set [1] (read-out: Half life T1/2 (converted)), the half-life was 5.88 h. Further, the Cmax in data set [1] (read-out: Plasma concentration Cmax) was found to be 178 ng/mL.

The record behind these values is EP4813984A1 (Jiangsu Hengrui Pharmaceuticals Co., Ltd., priority 2023, dated 2025).
